Like-named read-outs stand apart in the source and are kept apart here.
Assays:
[1] = assay type: physicochemical; details: for Tm: CD 222 nm, Boltzmann fit
From the text: (§1) Next, we used circular dichroism (CD) spectroscopy to probe the secondary structures of these WT CCD peptide assemblies. […] The spectra all had minima at 208 and 222 nm indicative of largely α-helical structures. From the high-concentration spectra we estimated ≈47% helix. To compare how the stabilities of these helical assemblies changed with concentration, we followed the changes in MRE222 with temperature over the same concentration range (Figure 2D, Table S1). Sigmoidal curves indicative of cooperative unfolding were apparent at all concentrations, indicating a cooperatively folded, oligomeric species. […] The temperature-dependent CD measurements were performed to determine the oligomerization-dependent thermal stability of the CCD. […] CD spectra of the peptides were recorded using a J-810 spectropolarimeter (Jasco) in a 0.1 cm and 1 cm quartz cuvette for far-UV CD spectroscopy, in a spectral range of 190 nm to 260 nm. The buffer used in the CD measurements was 25 mM sodium phosphate buffer pH = 6.8 with ionic strength of 154 mM (adjected by NaCl). The thermal melting of all STIL CCD peptides were measured as described. The graphs were fitted to Boltzmann equation in order to generate the Tm. Normalization to mean residue ellipticity was performed. The 100% helicity was calculated (with normalization to the length of the peptide and the condition of the measurement) as MRE × 10^−3 of −38 (Deg × cm^2 × dmol^−1 × res^−1).

[2] = tested on: STIL CCD peptide; assay: AUC sedimentation equilibrium (SE), oligomeric state; assay type: physicochemical; details: absorbance 225 nm, 95% confidence limits; for AUC oligomeric state, SE: starting concentrations 5, 10, 20 µM, single ideal species fit, 20 °C, 25 mM phosphate pH 6.8; for mass, single species model, SE: starting concentrations 20, 10 and 5 µM
Description: (§2) To quantify the dissociation constants of the possible monomer-dimer and dimer-tetramer transitions, we used fluorescence-based binding measurements. Using micro-scale thermophoresis, fluorescence measurements were taken at increasing concentrations of WT CCD peptide in a fixed background of 5 µM fluorophore-labelled peptide. […] Fitting the fluorescence data to the Hill equation provided a dissociation constant of 8 ± 2 µM and a cooperativity of 1.2 ± 0.3 (Figure 2B, Table S4). We interpret this as being for the monomer-dimer transition, and that the fluorescence measurements are insensitive to the higher-order oligomerization. […] To probe the possible dimer-tetramer transition, we turned to AUC-SE measurements with starting concentrations of 5, 10, and 20 µM of STIL WT CCD peptide (Figures S18 and S19). The equilibrated data were fitted first to a model for a single ideal species, which provided a species 2.9 × monomer mass (Table 1). […] It should be noted that the dimerization constant of the WT peptide was measured in the presence of 5% DMSO and using a fluorophore-labeled peptide, while the tetramerization constant was measured without DMSO and unlabeled peptides. The addition of the label and the presence of the DMSO, which was unavoidable for making the labeled peptide soluble, may have affected the measured dimerization constant. Thus, we avoid directly comparing the values obtained by the two methods.
(§3) Analytical ultracentrifugation (AUC) experiments were carried out using a Beckman Optima XL-A or XL-I analytical ultracentrifuge. Measurements were performed at 20 °C unless otherwise stated, using an An-50 or An-60 rotor, in Sodium Phosphate Buffer pH 6.8 (25 mM Na2PO4 with addition of 137 mM NaCl, pH measured using Jenway (TM) 3510 benchtop and adjusted using 1M HCl and 1M NaOH solutions). The partial specific volume ( υ¯ ) for each peptide were calculated in Sedfit using values from Cohn and Edsall. The buffer densities and viscosities were calculated using UltraScan III [54].
AUC sedimentation equilibrium (SE) experiments were run at multiple concentrations in a 6-Channel Epon charcoal-filled centerpiece. The samples were centrifuged at a range of speeds between 22–48 krpm. Absorbance scans across the radial range were recorded twice at each speed to ensure equilibration. Data were fitted to single, ideal species models or monomer-dimer equilibrium using Sedphat. In total, 95% confidence limits were obtained via Monte-Carlo analysis of the obtained fits. The quality of the fit was evaluated using the χ^2 parameter to observe which model best fit the data. Both fits of the data, where performed in Figures S18–S23 with their corresponding fit information.

[3] = CD spectroscopy, helicity; assay type: physicochemical; details: CD at 50 µM, 5 °C, 25 mM sodium phosphate pH 6.8, 154 mM NaCl; for % Helicity: from MRE222 (100% = −38)
From the text: as §1

[4] = tested on: STIL CCD peptide; assay: AUC-SE dimer-tetramer model, tetramerization KD; assay type: binding; details: any experimental conditions; KDs could not be measured
Description: as §2
as §3, with “[54]. […]” for “[54].”

[5] = tested on: STIL CCD peptide; assay: AUC sedimentation velocity (SV), oligomeric state; assay type: physicochemical; details: for oligomeric state (average number of monomers in the oligomer): continuous c(s), 25 mM sodium phosphate pH 6.8, NaCl
Description: Previously, we and others have shown by size-exclusion chromatography and multi-angle light scattering that the oligomerization of a STIL CCD peptide is concentration dependent. However, these studies were qualitative and the interaction was not quantified. To quantify the oligomerisation of the STIL CCD peptide, analytical ultracentrifugation (AUC) sedimentation velocity (SV) and sedimentation equilibrium (SE) experiments were performed (Figure 2A, Table 1 and Figures S4–S9, S18 and S19). AUC-SV experiments were conducted at several concentrations to explore how the oligomeric state changed with concentration in the low-to-high µM concentration range, and also to estimate the dissociation constants of the oligomerization of the STIL CCD peptide.
as §3
Sedimentation velocity (SV) experiments were performed in EPON 2-channel centerpieces with quartz windows or aluminium centrepieces with sapphire windows. The samples were centrifuged at 50 or 60 krpm where stated, with absorbance measurements taken from a radial range of 5.7–7.3 cm. 120 scans were taken at 5 min intervals, the data were fit in Sedfit to a continuous c(s) distribution model at a 95% confidence level. The frictional ration and baseline were floated, and Time-invariant and Radial-invariant noise were fit. Initially data were fit between a range of Svedberg ratio of 0–15, but this was reduced to 0–3 for all data as there were no larger species. The residuals for each individual fit are shown in Figures S14–S17 as a bitmap in which the color indicates the difference between the model fit and the raw data over the radial range to which the data were fitted. The scans are in vertical chronological order.

[6] = 50 µM, 25 mM sodium phosphate pH 6.8, 154 mM NaCl
[7] = 10 µM, AUC-SV, 60 krpm, 20 °C, pH 6.8
[8] = 10 µM, AUC-SV, 60 krpm, 20 °C, pH 6.8, 95% confidence level
[9] = 10 µM, AUC-SV, 60 krpm, 20 °C, absorbance, 95% confidence level
[10] = 100 µM, AUC-SV, 60 krpm, 20 °C, pH 6.8
[11] = 100 µM, AUC-SV, 60 krpm, 20 °C, pH 6.8, 95% confidence level
[12] = 100 µM, AUC-SV, 60 krpm, pH 6.8
[13] = 10 µM in legend of Figure S17 (second fit), 60 krpm

| Substance | Tm [1, 6] [°C] | AUC oligomeric state, SE [2] | mass, single species model, SE [2] [Da] | MRE222 nm [3] [kdeg cm^2 dmol^−1 res^−1] | % Helicity [3] [%] | dissociation of tetramer (in words) [4] | Oligomeric State (at 10 µM) ([5]; 10 µM) | sw [5, 7] [S] | mw (solution mass from c(s) fit) [5, 8] [Da] | f/f0 ([5]; 10 µM, AUC-SV, 60 krpm, pH 6.8) | sw(20,w) ([5]; 10 µM, AUC-SV, 60 krpm, pH 6.8) [S] | oligomeric state (average number of monomers in the oligomer) [5, 9] [× monomer mass] | sw [5, 10] [S] | mw (solution mass from c(s) fit) [5, 11] [Da] | f/f0 [5, 12] | sw(20,w) [5, 12] [S] | also measured |
| --- | --- | --- | --- | --- | --- | --- | --- | --- | --- | --- | --- | --- | --- | --- | --- | --- | --- |
| L SPDAYRF LTELDRQ LRLLQAQ IQRLLEA QSL-NH2 [STIL CCD718–749 Q729L, STIL CCD peptide with stabilising Q729L mutation; PDB 8oyl] | >95 | 3.47 ± 0.05 (5, 10, 20 µM) × monomer mass | 13373 ± 200 | −25.3 | 67 | could not be dissociated under any experimental conditions | Tetramer | 1.484 | 13538 | 1.250 | 1.531 | 3.56 | 1.573 | 15867 | 1.323 | 1.622 | oligomeric state (average number of monomers in the oligomer) ([5]; 100 µM, AUC-SV, 60 krpm, 20 °C, 95% confidence level, listed as STIL-Q729L): 4.1 × monomer mass |
| L SPDLYRF LTELDRQ LRLLQAQ IQRLLEA QSL-NH2 [STIL CCD718–749 A722L Q729L, STIL CCD peptide, double mutant of A722L and Q729L] | >95 | 3.24 ± 0.03 (5, 10, 20 µM) × monomer mass | 12446 ± 129 | −30.7 | 81 | could not be dissociated under any experimental conditions | Tetramer | 1.452 | 16229 | 1.411 | 1.499 | 4.22 | – | – | – | – | f/f0 [5, 13]: 1.390; sw [5, 13]: 1.483 S; sw(20,w) [5, 13]: 1.530 S; mw (solution mass from c(s) fit) ([5]; 10 µM in legend of Figure S17 (second fit), 60 krpm, 95% confidence level): 16134 Da; oligomeric state (multiple of monomer mass) ([5]; 10 µM in legend of Figure S17 (second fit), AUC-SV, 60 krpm, 95% confidence level): 4.2 × monomer mass; oligomeric state (average number of monomers in the oligomer) ([5]; 10 µM, AUC-SV, 60 krpm, 20 °C, absorbance, 95% confidence level, listed as STIL-A722L-Q729L): 4.2 × monomer mass |
| L SPDLYRF LTEQDRQ LRLLQAQ IQRLLEA QSL-NH2 [STIL CCD718–749 A722L, STIL CCD peptide with A722L mutation] | >70 | 3.51 ± 0.02 (5, 10, 20 µM) × monomer mass | 13541 ± 94 | −24.9 | 66 | could not be dissociated under any experimental conditions | Tetramer | 1.384 | 15133 | 1.458 | 1.428 | 3.92 | 1.483 | 15385 | 1.403 | 1.514 | Tm ([1]; 3 µM, sodium phosphate pH 6.8): 48.0±0.7 °C; Tm ([1]; 5 µM, sodium phosphate pH 6.8): 52.9±0.9 °C; Tm ([1]; 6 µM, sodium phosphate pH 6.8): 53.6±0.6 °C; Tm ([1]; 10 µM, sodium phosphate pH 6.8): 59.1±0.8 °C; Tm ([1]; 15 µM, sodium phosphate pH 6.8): 63±1 °C; Tm ([1]; 20 µM, sodium phosphate pH 6.8): 68±2 °C; Tm ([1]; 50 µM, 25 mM sodium phosphate pH 6.8, 154 mM NaCl, listed as A722L): over 70 °C; thermal denaturation (in words) ([1]; 50 µM, CD, 25 mM sodium phosphate pH 6.8, 154 mM NaCl): partially denatured; concentration dependence of Tm / thermal stability (in words) ([1]; pH 6.8): the thermal stability of A722L increased with peptide concentration; oligomeric state (average number of monomers in the oligomer) ([5]; 100 µM, AUC-SV, 60 krpm, 20 °C, 95% confidence level, listed as STIL-A722L): 4.0 × monomer mass |
